Data taken from ChEMBL document CHEMBL6074655, “Vindeburnol: A natural product-inspired chemical tool for central nervous system drug design” (Eur J Med Chem, 2024).

Experiments:
[1] = Toxicity in male mouse assessed as mortality rate at 50 mg/kg, iv; type: organism-based; settings: in vivo
[2] = Toxicity in female mouse assessed as mortality rate at 50 mg/kg, iv; type: organism-based; settings: in vivo

Work on O[C@@H]1C[C@H]2CCCN3CCc4c(n1c1ccccc41)[C@H]23 yielded a mortality [1] of 70% and a mortality [2] of 64%.
